Results on 21 compounds are retold here after patent US10040781B2, “Tank-binding kinase inhibitor compounds” (Gilead Sciences, Inc., priority 2014, dated 2018).

Usually IC50 stands for the point on the concentration scale where inhibition reaches its midpoint.

One assay concerns the target hJAK2 (Homo sapiens (Human), UniProt O60674). The assay can be described thus: hJAK2 LANCE TR-FRET enzymatic assay. It counts as biochemical. The note with it: read-out: JAK2 IC50. (In general: TR-FRET usually uses a lanthanide donor and a delayed reading to cut background.)
For a further assay, the target named is IKKε (Homo sapiens (Human), UniProt Q14164). The assay can be described thus: IKKε TR-FRET enzymatic assay. It counts as biochemical. The note with it: read-out: IKKe IC50.
Chain of IKKε (Q14164 whole entry): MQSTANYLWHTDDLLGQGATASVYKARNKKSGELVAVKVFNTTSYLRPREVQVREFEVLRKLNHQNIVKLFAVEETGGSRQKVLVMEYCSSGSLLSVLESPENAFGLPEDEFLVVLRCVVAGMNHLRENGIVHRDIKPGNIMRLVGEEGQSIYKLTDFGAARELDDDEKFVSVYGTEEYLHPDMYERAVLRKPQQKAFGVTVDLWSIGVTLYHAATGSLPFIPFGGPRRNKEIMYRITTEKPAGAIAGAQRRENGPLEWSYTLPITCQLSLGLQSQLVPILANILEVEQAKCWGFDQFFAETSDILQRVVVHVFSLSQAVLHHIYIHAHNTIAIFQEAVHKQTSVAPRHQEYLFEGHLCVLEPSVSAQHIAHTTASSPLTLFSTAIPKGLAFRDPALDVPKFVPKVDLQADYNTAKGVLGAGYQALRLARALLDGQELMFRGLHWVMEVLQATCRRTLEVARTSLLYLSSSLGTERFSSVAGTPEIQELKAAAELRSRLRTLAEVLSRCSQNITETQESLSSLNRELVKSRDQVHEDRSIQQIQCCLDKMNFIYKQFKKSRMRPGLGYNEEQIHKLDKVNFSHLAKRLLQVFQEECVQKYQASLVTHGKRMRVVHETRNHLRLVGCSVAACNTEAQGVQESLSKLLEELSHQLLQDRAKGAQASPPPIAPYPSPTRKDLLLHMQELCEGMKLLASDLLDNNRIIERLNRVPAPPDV
The target in the next assay is TBK1 (Homo sapiens (Human), UniProt Q9UHD2). The assay can be described thus: TBK1 TR-FRET enzymatic assay.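 Also: phosphorylation of a biotinylated Ser/Thr peptide by purified full-length recombinant TBK1, read by TR-FRET after 240 min at 25 °C, IC50 is the geometric mean of at least four runs.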
Chain of TBK1 (Q9UHD2 whole entry): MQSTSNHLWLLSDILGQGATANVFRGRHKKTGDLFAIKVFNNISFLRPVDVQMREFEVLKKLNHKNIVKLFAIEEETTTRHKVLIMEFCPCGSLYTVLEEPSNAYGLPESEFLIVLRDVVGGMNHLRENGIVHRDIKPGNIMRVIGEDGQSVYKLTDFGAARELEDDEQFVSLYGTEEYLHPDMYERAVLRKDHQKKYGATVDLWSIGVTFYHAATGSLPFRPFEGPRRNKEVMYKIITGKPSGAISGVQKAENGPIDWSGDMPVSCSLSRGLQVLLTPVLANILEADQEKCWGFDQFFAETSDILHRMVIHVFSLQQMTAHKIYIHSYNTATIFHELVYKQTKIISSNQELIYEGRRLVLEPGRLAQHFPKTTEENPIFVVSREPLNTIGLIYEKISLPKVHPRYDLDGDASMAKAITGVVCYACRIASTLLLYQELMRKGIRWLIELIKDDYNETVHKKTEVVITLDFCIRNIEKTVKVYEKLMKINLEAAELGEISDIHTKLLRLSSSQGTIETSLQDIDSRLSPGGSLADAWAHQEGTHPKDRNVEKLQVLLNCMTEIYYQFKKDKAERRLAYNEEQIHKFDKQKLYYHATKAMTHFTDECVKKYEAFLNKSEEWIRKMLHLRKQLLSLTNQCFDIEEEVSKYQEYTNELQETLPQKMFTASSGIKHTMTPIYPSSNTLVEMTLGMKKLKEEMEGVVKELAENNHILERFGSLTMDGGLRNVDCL

Chain of hJAK2 (O60674 whole entry): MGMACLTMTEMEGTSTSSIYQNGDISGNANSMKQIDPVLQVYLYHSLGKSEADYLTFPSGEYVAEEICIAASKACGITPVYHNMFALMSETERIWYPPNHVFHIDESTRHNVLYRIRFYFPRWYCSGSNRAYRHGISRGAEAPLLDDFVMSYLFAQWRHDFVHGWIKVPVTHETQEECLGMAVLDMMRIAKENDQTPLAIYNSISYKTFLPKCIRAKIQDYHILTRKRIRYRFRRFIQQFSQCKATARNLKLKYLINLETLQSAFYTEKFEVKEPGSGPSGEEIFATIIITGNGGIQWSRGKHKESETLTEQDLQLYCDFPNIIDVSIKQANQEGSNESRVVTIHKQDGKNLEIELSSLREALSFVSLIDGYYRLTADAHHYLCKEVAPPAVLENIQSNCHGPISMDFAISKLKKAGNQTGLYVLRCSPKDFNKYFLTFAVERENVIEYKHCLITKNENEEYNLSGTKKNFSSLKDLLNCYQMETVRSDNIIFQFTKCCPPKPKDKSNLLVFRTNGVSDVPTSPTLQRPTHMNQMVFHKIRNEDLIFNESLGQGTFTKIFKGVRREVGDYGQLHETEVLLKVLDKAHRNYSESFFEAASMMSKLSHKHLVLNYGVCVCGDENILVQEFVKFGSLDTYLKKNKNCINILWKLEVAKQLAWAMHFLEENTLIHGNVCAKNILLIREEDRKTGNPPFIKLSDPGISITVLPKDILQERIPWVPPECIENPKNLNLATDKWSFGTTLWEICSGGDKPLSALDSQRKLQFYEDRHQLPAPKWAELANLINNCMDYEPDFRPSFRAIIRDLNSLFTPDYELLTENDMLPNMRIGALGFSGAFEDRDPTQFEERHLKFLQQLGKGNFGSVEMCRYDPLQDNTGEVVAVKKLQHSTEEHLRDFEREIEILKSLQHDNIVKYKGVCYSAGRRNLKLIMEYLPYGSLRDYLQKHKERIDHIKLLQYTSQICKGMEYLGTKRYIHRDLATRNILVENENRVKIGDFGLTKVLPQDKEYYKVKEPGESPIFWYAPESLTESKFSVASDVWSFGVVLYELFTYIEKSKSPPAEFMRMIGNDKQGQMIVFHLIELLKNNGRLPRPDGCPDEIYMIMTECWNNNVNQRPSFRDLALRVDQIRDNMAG

In the case of `N#Cc1cc(-c2ncnc(Nc3ccc(Cn4ccnc4)cc3)n2)ccc1OC1CCOCC1` [Example 106, 5-(4-((4-((1H-imidazol-1-yl)methyl)phenyl)amino)-1,3,5-triazin-2-yl)-2-((tetrahydro-2H-pyran-4-yl)oxy)benzonitrile], the IC50 was more than 1000 nM on hJAK2, 4 nM on IKKε and 5 nM against TBK1.

For `CC1(O)CCN(c2ccc(Nc3ncnc(-c4ccc(OC5CCOCC5)c(C#N)c4)n3)cc2)C1` (stereo not drawn) [Example 108, 5-(4-((4-(3-hydroxy-3-methylpyrrolidin-1-yl)phenyl)amino)-1,3,5-triazin-2-yl)-2-((tetrahydro-2H-pyran-4-yl)oxy)benzonitrile], the IC50 on hJAK2 is more than 1000 nM; at IKKε it was 6 nM; against TBK1 it was 3 nM.

On to `Cc1cc(N2CCOCC2)ccc1Nc1ncnc(-c2ccc(OC3CCOCC3)c(C#N)c2)n1` [Example 109, 5-(4-((2-methyl-4-morpholinophenyl)amino)-1,3,5-triazin-2-yl)-2-((tetrahydro-2H-pyran-4-yl)oxy)benzonitrile], for which the IC50 was more than 1000 nM at hJAK2, 161 nM at IKKε and 76 nM at TBK1.

With `N#Cc1cc(-c2ncnc(Nc3ccc(N4CCN(C5COC5)CC4)cc3)n2)ccc1O[C@H]1CCN(C2CCOC2)C[C@H]1F` (stereo partly drawn) [Example 110, 2-(((3R,4S)-3-fluoro-1-(tetrahydrofuran-3-yl)piperidin-4-yl)oxy)-5-(4-((4-(4-(oxetan-3-yl)piperazin-1-yl)phenyl)amino)-1,3,5-triazin-2-yl)benzonitrile], the IC50 is 740 nM at hJAK2, 330 nM at IKKε and 243 nM against TBK1.

As for `N#Cc1cc(-c2ncnc(Nc3ccc(N4CCN(C5COC5)CC4)cc3)n2)ccc1O[C@H]1CCN(C2COC2)C[C@H]1F` [Example 111, 2-(((3R,4S)-3-fluoro-1-(oxetan-3-yl)piperidin-4-yl)oxy)-5-(4-((4-(4-(oxetan-3-yl)piperazin-1-yl)phenyl)amino)-1,3,5-triazin-2-yl)benzonitrile], the IC50 at hJAK2 turned out to be 602 nM; on IKKε it was 328 nM; at TBK1 it was 146 nM.

As to `N#Cc1cc(-c2ncnc(Nc3ccc(N4CCN(C5COC5)CC4)cc3)n2)ccc1OC1CCN(C(=O)[C@@H]2CCC(=O)N2)C[C@H]1F` (stereo partly drawn) [Example 112, 2-(((3R)-3-fluoro-1-((S)-5-oxopyrrolidine-2-carbonyl)piperidin-4-yl)oxy)-5-(4-((4-(4-(oxetan-3-yl)piperazin-1-yl)phenyl)amino)-1,3,5-triazin-2-yl)benzonitrile], the values for the IC50 on hJAK2, at IKKε and against TBK1 were 375 nM, 4 nM and 4 nM, respectively.

As for `N#Cc1cc(-c2ncnc(Nc3ccc(N4CCN(C5COC5)CC4)cc3)n2)ccc1OC1CCN(C(=O)[C@H]2CCC(=O)N2)C[C@H]1F` (stereo partly drawn) [Example 113, 2-(((3R)-3-fluoro-1-((R)-5-oxopyrrolidine-2-carbonyl)piperidin-4-yl)oxy)-5-(4-((4-(4-(oxetan-3-yl)piperazin-1-yl)phenyl)amino)-1,3,5-triazin-2-yl)benzonitrile], the IC50 at hJAK2 came out at 292 nM; on IKKε it was 100 nM; against TBK1, 64 nM.

Take `N#Cc1cc(-c2ncnc(Nc3ccc(N4CCN(C5COC5)CC4)cc3)n2)ccc1O[C@H]1CCC(=O)NC1` [Example 114, (S)-5-(4-((4-(4-(oxetan-3-yl)piperazin-1-yl)phenyl)amino)-1,3,5-triazin-2-yl)-2-((6-oxopiperidin-3-yl)oxy)benzonitrile]: the IC50 worked out at 175 nM at hJAK2, 56 nM at IKKε and 20 nM against TBK1.

Take `C[C@H]1C[C@H](Oc2ccc(-c3ncnc(Nc4ccc(N5CCN(C6COC6)CC5)cc4)n3)cc2C#N)[C@H](F)CN1C(=O)CO` [Example 115, 2-(((2S,4S,5R)-5-fluoro-1-(2-hydroxyacetyl)-2-methylpiperidin-4-yl)oxy)-5-(4-((4-(4-(oxetan-3-yl)piperazin-1-yl)phenyl)amino)-1,3,5-triazin-2-yl)benzonitrile]: the IC50 at hJAK2 is not below 1000 nM; at IKKε, 21 nM; against TBK1 it was 12 nM.

Regarding `N#Cc1cc(-c2ncnc(Nc3ccc(N4CCN(C5COC5)CC4)cc3)n2)ccc1O[C@H]1CCN(C(=O)[C@@H]2CCC(=O)N2)CC1(F)F` [Example 116, 2-(((S)-3,3-difluoro-1-((S)-5-oxopyrrolidine-2-carbonyl)piperidin-4-yl)oxy)-5-(4-((4-(4-(oxetan-3-yl)piperazin-1-yl)phenyl)amino)-1,3,5-triazin-2-yl)benzonitrile], the IC50 on hJAK2 came out at 146 nM; at IKKε it was 1 nM; against TBK1, 2 nM.

Consider `N#Cc1cc(-c2ncnc(Nc3ccc(N4CCN(C5COC5)CC4)cc3)n2)ccc1O[C@H]1CCN(C(=O)[C@@H]2CCCC(=O)N2)C[C@H]1F` [Example 117, 2-(((3R,4S)-3-fluoro-1-((S)-6-oxopiperidine-2-carbonyl)piperidin-4-yl)oxy)-5-(4-((4-(4-(oxetan-3-yl)piperazin-1-yl)phenyl)amino)-1,3,5-triazin-2-yl)benzonitrile], for which the IC50 at hJAK2 stood at 342 nM; on IKKε, 4 nM; against TBK1, 3 nM.

Consider `N#Cc1cc(-c2ncnc(Nc3ccc(N4CCN(C5COC5)CC4)cc3)n2)ccc1O[C@H]1CCN(C(=O)C2CCS(=O)(=O)N2)C[C@H]1F` (stereo partly drawn) [Example 118, 2-(((3R,4S)-1-(1,1-dioxidoisothiazolidine-3-carbonyl)-3-fluoropiperidin-4-yl)oxy)-5-(4-((4-(4-(oxetan-3-yl)piperazin-1-yl)phenyl)amino)-1,3,5-triazin-2-yl)benzonitrile], for which the IC50 at hJAK2 was determined as 284 nM; at IKKε, 11 nM; against TBK1 it was 7 nM.

As to `CN1CCN(C(=O)c2ccc(Nc3ncnc(-c4ccc(O[C@H]5CCN(C(=O)CO)C[C@H]5F)c(C#N)c4)n3)cc2)CC1` [Example 119, 2-(((3R,4S)-3-fluoro-1-(2-hydroxyacetyl)piperidin-4-yl)oxy)-5-(4-((4-(4-methylpiperazine-1-carbonyl)phenyl)amino)-1,3,5-triazin-2-yl)benzonitrile], the results for the IC50 at hJAK2, at IKKε and on TBK1 were 338 nM, 2 nM and 6 nM, respectively.

Turning to `C[C@H](O)C(=O)N1CC[C@H](Oc2ccc(-c3ncnc(Nc4ccc(C(=O)N5CCN(C)CC5)cc4)n3)cc2C#N)[C@H](F)C1` [Example 120, 2-(((3R,4S)-3-fluoro-1-((S)-2-hydroxypropanoyl)piperidin-4-yl)oxy)-5-(4-((4-(4-methylpiperazine-1-carbonyl)phenyl)amino)-1,3,5-triazin-2-yl)benzonitrile], the figures for the IC50 on hJAK2, on IKKε and on TBK1 were 674 nM, 2 nM and 4 nM, respectively.

Take `N#Cc1cc(-c2ncnc(Nc3ccc(N4CCN(C5COC5)CC4)cc3)n2)ccc1NC1CCOCC1` [Example 121, 5-(4-((4-(4-(oxetan-3-yl)piperazin-1-yl)phenyl)amino)-1,3,5-triazin-2-yl)-2-((tetrahydro-2H-pyran-4-yl)amino)benzonitrile]: the IC50 on hJAK2 turned out to be 32 nM; at IKKε it was 47 nM; at TBK1, 11 nM.

For `COC1CCC(Oc2ccc(-c3ncnc(Nc4ccc(N5CCN(C6COC6)CC5)cc4)n3)cc2C#N)CC1` (stereo not drawn) [Example 122, 2-((4-methoxycyclohexyl)oxy)-5-(4-((4-(4-(oxetan-3-yl)piperazin-1-yl)phenyl)amino)-1,3,5-triazin-2-yl)benzonitrile], the figures for the IC50 at hJAK2, at IKKε and on TBK1 were 402 nM, 15 nM and 15 nM, respectively.

For the compound `C[C@@H](CO)C(=O)N1CC[C@H](Oc2ccc(-c3ncnc(Nc4ccc(N5CCN(C6COC6)CC5)cc4)n3)cc2C#N)[C@H](F)C1` [Example 123, 2-(((3R,4S)-3-fluoro-1-((S)-3-hydroxy-2-methylpropanoyl)piperidin-4-yl)oxy)-5-(4-((4-(4-(oxetan-3-yl)piperazin-1-yl)phenyl)amino)-1,3,5-triazin-2-yl)benzonitrile], the IC50 was found to be 546 nM on hJAK2, 132 nM on IKKε and 31 nM at TBK1.

`C[C@H](CO)C(=O)N1CC[C@H](Oc2ccc(-c3ncnc(Nc4ccc(N5CCN(C6COC6)CC5)cc4)n3)cc2C#N)[C@H](F)C1` [Example 124, 2-(((3R,4S)-3-fluoro-1-((R)-3-hydroxy-2-methylpropanoyl)piperidin-4-yl)oxy)-5-(4-((4-(4-(oxetan-3-yl)piperazin-1-yl)phenyl)amino)-1,3,5-triazin-2-yl)benzonitrile]: the IC50 is 676 nM on hJAK2, 54 nM at IKKε and 15 nM against TBK1.

Take `N#Cc1cc(-c2ncnc(Nc3ccc(N4CCN(C5COC5)CC4)cc3)n2)ccc1O[C@@H]1CCCN(C(=O)CO)C1` [Example 125, (R)-2-((1-(2-hydroxyacetyl)piperidin-3-yl)oxy)-5-(4-((4-(4-(oxetan-3-yl)piperazin-1-yl)phenyl)amino)-1,3,5-triazin-2-yl)benzonitrile]: the IC50 on hJAK2 amounted to 952 nM; at IKKε, 86 nM; against TBK1, 31 nM.

Turning to `C[C@H](O)C(=O)N1CCC[C@@H](Oc2ccc(-c3ncnc(Nc4ccc(N5CCN(C6COC6)CC5)cc4)n3)cc2C#N)C1` [Example 126, 2-(((R)-1-((S)-2-hydroxypropanoyl)piperidin-3-yl)oxy)-5-(4-((4-(4-(oxetan-3-yl)piperazin-1-yl)phenyl)amino)-1,3,5-triazin-2-yl)benzonitrile], the IC50 on hJAK2 is not below 1000 nM; on IKKε, 111 nM; at TBK1, 56 nM.

Turning to `N#Cc1cc(-c2ncnc(Nc3ccc(N4CCN(C5COC5)CC4)cc3)n2)ccc1O[C@H]1CCCN(C(=O)CO)C1` [Example 127, (S)-2-((1-(2-hydroxyacetyl)piperidin-3-yl)oxy)-5-(4-((4-(4-(oxetan-3-yl)piperazin-1-yl)phenyl)amino)-1,3,5-triazin-2-yl)benzonitrile], the IC50 stood at 394 nM at hJAK2, 562 nM at IKKε and 180 nM at TBK1.
